How the values were obtained:
UGT1A7 = UGT1A7 (Homo sapiens, UniProt Q9HAW7); assay: Substrate glucuronidation by recombinant UGT1A7; assay type: in vitro ADME; conditions: UGT1A7 Bacculosomes 250 μg/ml; 7-HFC 50 μM
UGT1A9 = molecular target: T1, UGT1A9 (Homo sapiens, UniProt O60656); assay: Substrate glucuronidation by recombinant UGT1A9
T1 sequence (O60656 26-530): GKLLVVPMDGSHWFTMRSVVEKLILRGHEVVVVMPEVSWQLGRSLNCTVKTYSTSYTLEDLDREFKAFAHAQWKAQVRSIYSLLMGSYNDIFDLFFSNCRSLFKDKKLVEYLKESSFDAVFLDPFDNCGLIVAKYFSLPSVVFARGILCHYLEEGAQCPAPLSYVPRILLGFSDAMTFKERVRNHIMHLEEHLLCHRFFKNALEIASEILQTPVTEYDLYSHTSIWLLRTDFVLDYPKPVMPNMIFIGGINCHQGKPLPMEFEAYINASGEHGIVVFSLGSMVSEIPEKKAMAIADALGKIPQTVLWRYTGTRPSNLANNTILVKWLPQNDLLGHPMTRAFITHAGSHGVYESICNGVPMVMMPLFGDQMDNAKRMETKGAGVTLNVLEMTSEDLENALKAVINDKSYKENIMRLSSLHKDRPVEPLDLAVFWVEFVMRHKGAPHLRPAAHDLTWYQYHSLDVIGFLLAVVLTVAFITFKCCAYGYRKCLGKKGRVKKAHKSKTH

UGT2B7 [1] = molecular target: T2, UGT2B7 (Homo sapiens, UniProt P16662); assay: Substrate glucuronidation by recombinant UGT2B7; conditions: for 7-HFC glucuronidation rate: 7-HFC 50 μM
T2 sequence (P16662 24-529): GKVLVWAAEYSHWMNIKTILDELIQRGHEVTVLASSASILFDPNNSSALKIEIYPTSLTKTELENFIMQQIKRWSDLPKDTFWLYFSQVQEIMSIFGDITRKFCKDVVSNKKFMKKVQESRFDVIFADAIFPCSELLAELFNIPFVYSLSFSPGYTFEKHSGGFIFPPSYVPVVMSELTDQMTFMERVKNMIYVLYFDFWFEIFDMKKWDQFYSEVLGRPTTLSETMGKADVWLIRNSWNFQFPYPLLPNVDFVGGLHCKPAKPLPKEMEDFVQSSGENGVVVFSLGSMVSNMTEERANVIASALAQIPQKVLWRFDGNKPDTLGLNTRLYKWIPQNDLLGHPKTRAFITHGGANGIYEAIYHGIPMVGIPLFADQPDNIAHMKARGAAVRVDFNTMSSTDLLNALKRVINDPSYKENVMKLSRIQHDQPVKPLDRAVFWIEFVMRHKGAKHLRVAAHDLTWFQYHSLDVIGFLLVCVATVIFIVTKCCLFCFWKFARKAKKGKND

UGT2B15 = UGT2B15 (Homo sapiens, UniProt P54855); assay: Substrate glucuronidation by recombinant UGT2B15; conditions: UGT2B15 Supersomes 250 μg/ml; 7-HFC 50 μM
Sequence of UGT2B15 (P54855 24-530): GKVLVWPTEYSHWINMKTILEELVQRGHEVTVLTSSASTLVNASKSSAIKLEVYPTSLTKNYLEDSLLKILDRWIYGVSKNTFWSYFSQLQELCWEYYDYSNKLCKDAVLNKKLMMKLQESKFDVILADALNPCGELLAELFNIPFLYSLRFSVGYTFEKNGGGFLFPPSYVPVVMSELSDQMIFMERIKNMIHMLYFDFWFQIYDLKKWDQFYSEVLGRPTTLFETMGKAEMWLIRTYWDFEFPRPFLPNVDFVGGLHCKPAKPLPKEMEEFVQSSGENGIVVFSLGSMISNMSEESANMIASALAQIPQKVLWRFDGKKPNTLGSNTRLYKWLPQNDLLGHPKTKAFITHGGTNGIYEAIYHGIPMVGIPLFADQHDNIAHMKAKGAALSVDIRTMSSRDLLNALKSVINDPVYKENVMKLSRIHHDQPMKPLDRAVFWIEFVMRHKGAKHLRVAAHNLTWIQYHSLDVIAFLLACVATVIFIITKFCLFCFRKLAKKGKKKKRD

UGT1A8 = molecular target: T3, UGT1A8 (Homo sapiens, UniProt Q9HAW9)
T3 sequence (Q9HAW9 26-530): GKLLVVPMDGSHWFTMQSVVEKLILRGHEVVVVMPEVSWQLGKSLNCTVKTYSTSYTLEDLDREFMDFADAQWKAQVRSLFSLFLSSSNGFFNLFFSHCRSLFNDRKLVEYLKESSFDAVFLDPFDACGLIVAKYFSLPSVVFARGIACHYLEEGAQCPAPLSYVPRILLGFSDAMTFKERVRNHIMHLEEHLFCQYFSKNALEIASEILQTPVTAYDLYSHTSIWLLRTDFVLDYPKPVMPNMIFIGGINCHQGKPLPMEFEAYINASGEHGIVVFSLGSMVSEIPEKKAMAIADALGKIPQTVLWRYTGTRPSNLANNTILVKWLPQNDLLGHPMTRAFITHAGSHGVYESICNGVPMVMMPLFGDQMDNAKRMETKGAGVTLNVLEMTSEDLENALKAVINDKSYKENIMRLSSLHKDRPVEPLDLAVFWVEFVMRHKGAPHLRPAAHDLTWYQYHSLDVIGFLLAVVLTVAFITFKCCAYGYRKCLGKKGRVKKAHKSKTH

UGT1A10 = molecular target: T4, UGT1A10 (Homo sapiens, UniProt Q9HAW8)
T4 sequence (Q9HAW8 26-530): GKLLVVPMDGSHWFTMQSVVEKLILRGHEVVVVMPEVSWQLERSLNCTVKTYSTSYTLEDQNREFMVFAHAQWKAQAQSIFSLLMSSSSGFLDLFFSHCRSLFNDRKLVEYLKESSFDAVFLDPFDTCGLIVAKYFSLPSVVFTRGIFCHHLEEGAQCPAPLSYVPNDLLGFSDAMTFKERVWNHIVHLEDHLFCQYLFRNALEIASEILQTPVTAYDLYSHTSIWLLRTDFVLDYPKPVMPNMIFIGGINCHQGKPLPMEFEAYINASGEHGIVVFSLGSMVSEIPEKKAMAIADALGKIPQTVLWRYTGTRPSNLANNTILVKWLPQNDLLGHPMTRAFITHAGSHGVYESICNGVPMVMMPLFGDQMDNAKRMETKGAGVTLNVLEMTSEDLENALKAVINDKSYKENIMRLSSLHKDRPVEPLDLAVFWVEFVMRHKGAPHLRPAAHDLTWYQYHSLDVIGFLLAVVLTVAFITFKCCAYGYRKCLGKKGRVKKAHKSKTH

UGT2B7 [2] = molecular target: T2, UGT2B7; conditions: 30 min, 100 μM, pH 7.5
[3] = humans; cited from earlier work
[4] = system: UGT enzymes of human liver microsomes; assay: Inhibition of zidovudine glucuronidation in human liver microsomes; assay type: biochemical
Procedure: Compounds were eluted using a binary solvent gradient system where solvent A was dilute phosphoric acid (pH 3) and solvent B was acetonitrile.
Standardized incubations utilized 500 μM zidovudine substrate, 1 mg/ml microsomal protein, 5 mM UDPGA and a 30 min incubation time. […] Int.

Sequence of UGT1A7 (Q9HAW7 26-530): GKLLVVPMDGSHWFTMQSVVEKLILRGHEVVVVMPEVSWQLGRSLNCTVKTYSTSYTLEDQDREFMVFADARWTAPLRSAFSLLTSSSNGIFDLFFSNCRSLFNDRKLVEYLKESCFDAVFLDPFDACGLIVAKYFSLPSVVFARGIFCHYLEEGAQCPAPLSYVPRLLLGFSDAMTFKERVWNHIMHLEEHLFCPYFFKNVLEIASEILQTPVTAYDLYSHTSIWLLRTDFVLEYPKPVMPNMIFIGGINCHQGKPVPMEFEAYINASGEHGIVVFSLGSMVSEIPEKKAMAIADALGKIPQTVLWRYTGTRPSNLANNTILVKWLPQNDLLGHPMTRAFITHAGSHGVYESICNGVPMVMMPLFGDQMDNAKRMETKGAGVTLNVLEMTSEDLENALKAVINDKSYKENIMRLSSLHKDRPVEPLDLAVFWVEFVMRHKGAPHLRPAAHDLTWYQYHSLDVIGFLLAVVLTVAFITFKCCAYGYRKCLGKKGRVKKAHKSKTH

O=c1cc(C(F)(F)F)c2ccc(O)cc2o1 [7-HFC, 7-hydroxy-4-(trifluoromethyl)coumarin]
7-HFC glucuronidation rate (UGT1A7): 564 ± 9 pmol/min/mg protein
7-HFC glucuronidation rate as % of the rate for UGT1A6 (UGT1A9; UGT1A9): 81%
7-HFC glucuronidation rate (UGT1A9; UGT1A9 Supersomes 250 μg/ml, 7-HFC 50 μM): 3976 ± 41 pmol/min/mg protein
7-HFC glucuronidation rate in Panvera Bacculosomes as % of Gentest Supersomes (UGT2B7 [1]; UGT2B7): 22%
7-HFC glucuronidation rate (UGT2B7 [1]; UGT2B7 Bacculosomes 250 μg/ml): 212 ± 13 pmol/min/mg protein
7-HFC glucuronidation rate (UGT2B7 [1]; UGT2B7 Supersomes 250 μg/ml): 972 ± 72 pmol/min/mg protein
7-HFC glucuronidation rate (UGT2B15): 976 ± 17 pmol/min/mg protein

CC(CCc1ccccc1)NCC(O)c1ccc(O)c(C(N)=O)c1 (centres unmarked) [Labetalol, labetalol]
labetalol metabolism, in words (UGT1A8): No detectable metabolism was observed
labetalol metabolism, in words (UGT1A10): No detectable metabolism was observed
LG1/LG2 (UGT2B7 [2]): 12
labetalol metabolite LG1, peak area normalized to internal standard (UGT2B7 [2]): 993 (52)
labetalol metabolite LG2, peak area normalized to internal standard (UGT2B7 [2]): 81 (3)
absolute oral bioavailability [3]: 25-30%

O=c1c(O)c(-c2ccc(O)c(O)c2)oc2cc(O)cc(O)c12 [Quercetin]
inhibition of zidovudine metabolism, in words [4]: ineffective

Reference: US20030215462A1, “Use of UGT inhibitors to increase bioavailability” (priority 2001, published 2003)
